Measured values as given in patent US9326507B2, “Pheromone composition for treating Varroa mite infestation” (Universitaet Hohenheim, priority 2013, dated 2016).

tested on: male Varroa mites; experiment: mating bioassay: male response to a female deutochrysalis dummy; type: in vivo, Varroa destructor; settings: pure substances tested at 1, 10, 100 and 1000 ng
Method: Male and female Varroa mites were obtained from brood combs of heavily infested Apis mellifera colonies at the Apicultural State Institute, University of Hohenheim in Germany. Sexually mature males and freshly molted adult females as well as female deutochrysalis were collected from brood cells 8 to 9 days after capping. Female deutochrysales and freshly molted adult female mites were transferred into queen cell cups (Nicot System®, Karl Jenter, Metzingen) and kept at 28-30° C. for a maximum of 2 hours in order to prevent a decrease in vitality and mobility.
The responses of male Varroa mites to extracts, fractions, and pure substances were measured by using the “mating bioassay”: total extracts, fractions and pure substances were applied to a piece of filter paper (size: 1.5 mm×15 mm) with a 10 μl Hamilton syringe. The filter paper was folded in the middle and placed at the edge of the plastic cell cups (Nicot System®, Karl Jenter, Metzingen, 9 mm inner diameter) that served as a test arena. A living female deutochrysalis was placed at the bottom of the cell cup at 3.5 mm distance to the filter paper. […] After three tests, the dummies were replaced by new ones. The male responses towards the deutochrysalis were categorized as follows: (1) movement towards/around the deutochrysalis and palpating it, (2) mounting the dorsum of the deutochrysalis and (3) copulation attempts on the venter of the deutochrysalis. The duration of each of these behaviours was recorded over a period of 5 minutes using the Observer 2.0 software (Noldus Information Technology). All tests were performed at temperatures of 33-34° C. at the bottom of the test arena.
The extract was applied to the filter paper in doses of 2 female equivalents; in control tests the filter paper was treated with ether only. Pentane and ether fractions were tested in concentrations of 5 female equivalents in the same way. The higher concentration was applied in order to equalize possible losses of active substances during the column fractionation. Single substances that were identified from the active fraction (see 2.6) were purchased (Sigma Aldrich, GC grade), dissolved in diethyl ether and were tested in doses of 1 ng, 10 ng, 100 ng and 1000 ng.
Behavioural data were analyzed with the SPSS 15.0 statistics software. One Way ANOVA was performed to evaluate the male response toward the female deutochrysalis while being exposed to total extracts, fractions or pure substances. Differences between groups with p<0.05 were considered statistically significant.

Structure (SMILES)	copulatory responses / male mating behaviour to pure substances	dosage of maximum copulatory responses	dosage of lowest copulatory responses
CCCCCCCC/C=C\CCCCCCCC(=O)OCC [ethyl oleate]	the same trend was evident, albeit without significant differences	–	–
CCCCCCCCCCCCCCCC(=O)OCC [ethyl palmitate]	–	10 ng	–
CCCCCCCCCCCCCCCCCC(=O)OCC [ethyl stearate]	–	10 ng	–
CCCCCCCC/C=C\CCCCCCCC(=O)O [oleic acid]	highest copulatory responses	10 ng	1000 ng
CCCCCCCCCCCCCCCC(=O)O [palmitic acid]	–	10 ng	–
CCCCCCCCCCCCCCCCCC(=O)O [stearic acid]	lower compared to the other compounds	1 ng	–
